Reference: patent publication EP1044978A2, “1-N-alkyl-5'-[(N'-(un)substituted)amido]spiroindolinonaphthoxazines, their preparation, compositions and (co)polymer matrices containing them” (Corning S.A., priority 1999, dated 2000)

Experiment: Photochromic properties of lens samples (2 mm, compound in matrix I or II) exposed to UV radiation from a xenon lamp
Type: physicochemical
Settings: lens sample
From the text: The matrix used in accordance with the present invention may be one of two types :
A homopolymer of the monomer DIACRYL 121 (D121 : tetraethoxylated Bisphenol A dimethylmethacrylate), marketed by Akzo Nobel; or
A copolymer comprised of a 50/50 mixture by weight of D121 (as above) and polyethylene glycol dimethacrylate (Molecular weight = 400) (PEGDMA 400).
10^-5 moles of at least one compound of the invention, together with 0.2% by weight of AMBN (2,2'-azobis(2-methylbutyronitrile)) provided by Akzo, are added to 10 g of formulations able to generate cross-linked matrix I or II. The formulations thus prepared are then poured into a lens mould of 2 mm thickness and then cured by heating at 60°C for 6 hours, followed by heating at 80°C for 2 hours to give a lens sample.
The photochromic properties of the lens samples thus obtained were then evaluated as follows :
Said lens sample, containing said photochromic compounds in its mass, is exposed to a UV radiation (source: xenon lamp).
Bleu D: 1,3-dihydro-1,3,3,5,6-pentamethylspiro[2H-indole-2'3'-[3H]-naphth-[2,1-b][1,4]oxazine] supplied by Great Lakes. T0 : the transmission before exposure to UV TD15 : the transmission after 15 minutes' exposure to UV OID : optical induced density (D∞-D0) [D∞ is the density after exposure, D0 the density before exposure] t1/2 : time of half-darkness which characterises the kinetics of the return to the initial state when at the equilibrium the exposure is cut off. λmax : the maximum absorption in the visible spectrum after UV irradiation.

[1] = Matrix I (homopolymer of DIACRYL 121)
[2] = Matrix II (50/50 D121 / PEGDMA 400 copolymer)

Q: With `Cc1ccc(NC(=O)c2cc3ccccc3c3c2OC2(C=N3)N(C)c3ccccc3C2(C)C)cc1` (stereo not shown) [Example 3, 1,3-dihydro-1,3,3-trimethyl-5'-p-(tolylcarbamoyl)spiro[2H-indole-2,3'-[3H]-naphtho[2,1-b][1,4]oxazine]] as the compound, how does the “OID (optical induced density, D∞-D0)” value [1] read?
A: 0.707

Q: And the “T0 (the transmission before exposure to UV)” value [1]?
A: 75.5%

Q: And the “TD15 (the transmission after 15 minutes' exposure to UV)” value (shortened to “TD15”) [1]?
A: 14.8%

Q: And the “λmax (the maximum absorption in the visible spectrum after UV irradiation)” value (shortened to “λmax”) [1]?
A: 634 nm

Q: For `CN1c2ccccc2C(C)(C)C12C=Nc1c(c(C(=O)N3CCCCC3)cc3ccccc13)O2` (stereo not shown) [Example 2, 1,3-dihydro-1,3,3-trimethyl-5'-piperidinocarbonylspiro[2H-indole-2,3'-[3H]-naphtho[2,1-b][1,4]oxazine]], which “OID (optical induced density, D∞-D0)” value [1] is on record?
A: 0.152

Q: What about the “T0 (the transmission before exposure to UV)” value [1] of the same compound?
A: 89.0%

Q: What about the “TD15” value [1] of the same compound?
A: 62.6%

Q: What about the “λmax” value [1] of the same compound?
A: 618 nm

Q: What does the source list for `CN1c2ccccc2C(C)(C)C12C=Nc1c(ccc3ccccc13)O2` (stereo not shown) [Control I, 1,3-dihydro-1,3,3-trimethylspiro[2H-indole-2,3'-[3H]-naphth[2,1-b][1,4]oxazine], reference compound]?
A: OID (optical induced density, D∞-D0) [1]: 0.142; T0 (the transmission before exposure to UV) [1]: 90.9%; TD15 (the transmission after 15 minutes' exposure to UV) [1]: 65.6%; λmax (the maximum absorption in the visible spectrum after UV irradiation) [1]: 607 nm; OID (optical induced density, D∞-D0) [2]: 0.140; T0 (the transmission before exposure to UV) [2]: 90.5%; TD15 (the transmission after 15 minutes' exposure to UV) [2]: 65.5%; λmax (the maximum absorption in the visible spectrum after UV irradiation) [2]: 610 nm

Q: For `CN1c2ccccc2C(C)(C)C12C=Nc1c(c(C(=O)N3CCc4ccccc43)cc3ccccc13)O2` (stereo not shown) [Example 4, 1,3-dihydro-1,3,3-trimethyl-5'-indolinocarbonylspiro[2H-indole-2,3'-[3H]-naphtho[2,1-b][1,4]oxazine]], which “OID (optical induced density, D∞-D0)” value [1] is on record?
A: 0.339

Q: And the “T0 (the transmission before exposure to UV)” value [1]?
A: 86.9%

Q: What about the “TD15” value [1] of the same compound?
A: 39.8%

Q: And the “λmax” value [1]?
A: 622 nm

Q: What about the “OID (optical induced density, D∞-D0)” value [2] of the same compound?
A: 0.553

Q: What about the “T0 (the transmission before exposure to UV)” value [2] of the same compound?
A: 85.4%

Q: What about the “TD15” value [2] of the same compound?
A: 23.9%

Q: What about the “λmax” value [2] of the same compound?
A: 622 nm

Q: With `CN1c2ccccc2C(C)(C)C12C=Nc1c(c(C(=O)N3CCOCC3)cc3ccccc13)O2` (stereo not shown) [Example 1, 1,3-dihydro-1,3,3-trimethyl-5'-morpholinocarbonylspiro[2H-indole-2,3'-[3H]-naphtho[2,1-b][1,4]oxazine]] as the compound, how does the “OID (optical induced density, D∞-D0)” value [2] read?
A: 0.324

Q: And the “T0 (the transmission before exposure to UV)” value [2]?
A: 88.9%

Q: And the “TD15” value [2]?
A: 42.2%

Q: And the “λmax” value [2]?
A: 620 nm

Q: Which results are given for `COc1ccc2c(c1)C(C)(C)C1(C=Nc3c(c(C(=O)N4CCCCC4)cc4ccccc34)O1)N2C` (stereo not shown) [Example 6, 1,3-dihydro-5-methoxy-1,3,3-trimethyl-5'-piperidinocarbonylspiro[2H]-indole-2,3'-[3H]naphth[2,1-b][1,4]oxazine]?
A: OID (optical induced density, D∞-D0) [2]: 0.858; T0 (the transmission before exposure to UV) [2]: 81.9%; TD15 (the transmission after 15 minutes' exposure to UV) [2]: 11.3%; λmax (the maximum absorption in the visible spectrum after UV irradiation) [2]: 634 nm

Q: For `CC(C)CN1c2ccccc2C(C)(C)C12C=Nc1c(c(C(=O)N3CCCCC3)cc3ccccc13)O2` (stereo not shown) [Example 7, 1,3-dihydro-1-(2'-methylpropyl)-3,3-dimethyl-5'-piperidinocarbonylspiro[2H-indole-2,3'-[3H]-naphtho[2,1-b] [1,4]oxazine]], which “OID (optical induced density, D∞-D0)” value [2] is on record?
A: 0.437

Q: And the “T0 (the transmission before exposure to UV)” value [2]?
A: 86.9%

Q: What about the “TD15” value [2] of the same compound?
A: 31.8%

Q: And the “λmax” value [2]?
A: 622 nm

Q: With “1,3-dihydro-1,3,3,4(5),5(6)-pentamethyl-5'-piperidinocarbonyl-spiro[2H]-indole-2,3'-[3H]naphth[2,1-b][1,4]oxazine [Example 5]” as the compound, how does the “OID (optical induced density, D∞-D0)” value [1] read?
A: 0.905

Q: And the “T0 (the transmission before exposure to UV)” value [1]?
A: 77.6%

Q: And the “TD15” value [1]?
A: 9.7%

Q: And the “λmax” value [1]?
A: 626 nm

Q: What about the “OID (optical induced density, D∞-D0)” value [2] of the same compound?
A: 1.067

Q: What about the “T0 (the transmission before exposure to UV)” value [2] of the same compound?
A: 80.7%

Q: What about the “TD15” value [2] of the same compound?
A: 6.9%

Q: What about the “λmax” value [2] of the same compound?
A: 622 nm

Q: With `Cc1cc2c(cc1C)C(C)(C)C1(C=Nc3c(ccc4ccccc34)O1)N2C` (stereo not shown) [Control II, 1,3-dihydro-1,3,3,5,6-pentamethylspiro[2H-indole-2'3'-[3H]-naphth-[2,1-b][1,4]oxazine], reference compound] as the compound, how does the “OID (optical induced density, D∞-D0)” value [1] read?
A: 0.280

Q: What about the “T0 (the transmission before exposure to UV)” value [1] of the same compound?
A: 90.5%

Q: What about the “TD15” value [1] of the same compound?
A: 47.5%

Q: What about the “λmax” value [1] of the same compound?
A: 616 nm

Q: And the “OID (optical induced density, D∞-D0)” value [2]?
A: 0.357

Q: What about the “T0 (the transmission before exposure to UV)” value [2] of the same compound?
A: 90.5%

Q: What about the “TD15” value [2] of the same compound?
A: 39.8%

Q: And the “λmax” value [2]?
A: 616 nm
